Measured values published in the supplement of paper PMC8612539.
Values after ≈ are worked out from the molar mass of the structure shown.

System: Pasteurella multocida
Test: minimum inhibitory concentration (MIC)
Procedure: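 Broth microdilution MIC (Sensititre BOPO7F bovine plate, CLSI methods) of 19 antimicrobials against field isolates of P. multocida, M. haemolytica, H. somni (deep nasopharyngeal swabs) and E. coli, Enterococcus spp. (rectal swabs) from weaned dairy heifers. Incubation 16-24 h at 35 C. MIC is the lowest concentration preventing visible growth. Values with <= or > lie at the tested range limits. Trimethoprim-sulfamethoxazole is given as the trimethoprim component of a 1:19 mixture.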

CC1(C)S[C@@H]2[C@H](NC(=O)[C@H](N)c3ccccc3)C(=O)N2[C@H]1C(=O)O [Ampicillin]
Details | minimum inhibitory concentration [µg/mL]
isolate (source animal id): 10 | ≤ 0.25
isolate (source animal id): 11 | ≤ 0.25
isolate (source animal id): 12 | ≤ 0.25
isolate (source animal id): 19 | ≤ 0.25
isolate (source animal id): 23 | ≤ 0.25
isolate (source animal id): 26 | ≤ 0.25
isolate (source animal id): 98 | ≤ 0.25
isolate (source animal id): 104 | ≤ 0.25
isolate (source animal id): 115 | ≤ 0.25
isolate (source animal id): 117 | ≤ 0.25
isolate (source animal id): 118 | ≤ 0.25
isolate (source animal id): 121 | ≤ 0.25
isolate (source animal id): 124 | 0.5 (≈ 1.43 µM)
isolate (source animal id): 125 | ≤ 0.25
isolate (source animal id): 128 | ≤ 0.25
isolate (source animal id): 131 | ≤ 0.25
isolate (source animal id): 135 | ≤ 0.25
isolate (source animal id): 136 | ≤ 0.25
isolate (source animal id): 140 | ≤ 0.25
isolate (source animal id): 144 | ≤ 0.25
isolate (source animal id): 146 | ≤ 0.25
isolate (source animal id): 150 | ≤ 0.25
isolate (source animal id): 151 | ≤ 0.25
isolate (source animal id): 153 | ≤ 0.25
isolate (source animal id): 155 | ≤ 0.25
isolate (source animal id): 157 | ≤ 0.25
isolate (source animal id): 160 | ≤ 0.25
isolate (source animal id): 164 | ≤ 0.25
isolate (source animal id): 165 | ≤ 0.25
isolate (source animal id): 167 | ≤ 0.25
isolate (source animal id): 168 | ≤ 0.25
isolate (source animal id): 169 | ≤ 0.25
isolate (source animal id): 170 | 8 (≈ 22.9 µM)
isolate (source animal id): 171 | ≤ 0.25
isolate (source animal id): 172 | ≤ 0.25
isolate (source animal id): 173 | ≤ 0.25
isolate (source animal id): 174 | ≤ 0.25
isolate (source animal id): 175 | ≤ 0.25
isolate (source animal id): 176 | ≤ 0.25
isolate (source animal id): 177 | ≤ 0.25
isolate (source animal id): 178 | ≤ 0.25
isolate (source animal id): 179 | ≤ 0.25
isolate (source animal id): 182 | ≤ 0.25
isolate (source animal id): 192 | ≤ 0.25
isolate (source animal id): 193 | ≤ 0.25
isolate (source animal id): 195 | ≤ 0.25
isolate (source animal id): 196 | ≤ 0.25
isolate (source animal id): 197 | ≤ 0.25
isolate (source animal id): 198 | ≤ 0.25
isolate (source animal id): 199 | ≤ 0.25
isolate (source animal id): 200 | ≤ 0.25
isolate (source animal id): 201 | ≤ 0.25
isolate (source animal id): 203 | ≤ 0.25
isolate (source animal id): 204 | ≤ 0.25
isolate (source animal id): 205 | ≤ 0.25
isolate (source animal id): 206 | ≤ 0.25
isolate (source animal id): 207 | ≤ 0.25
isolate (source animal id): 208 | ≤ 0.25
isolate (source animal id): 209 | ≤ 0.25
isolate (source animal id): 210 | ≤ 0.25
isolate (source animal id): 213 | ≤ 0.25
isolate (source animal id): 216 | ≤ 0.25
isolate (source animal id): 223 | ≤ 0.25
isolate (source animal id): 227 | ≤ 0.25
isolate (source animal id): 229 | ≤ 0.25
isolate (source animal id): 233 | ≤ 0.25
isolate (source animal id): 234 | ≤ 0.25
isolate (source animal id): 237 | ≤ 0.25
isolate (source animal id): 241 | ≤ 0.25
isolate (source animal id): 245 | ≤ 0.25
isolate (source animal id): 247 | ≤ 0.25
isolate (source animal id): 250 | ≤ 0.25
isolate (source animal id): 254 | ≤ 0.25
isolate (source animal id): 255 | ≤ 0.25
isolate (source animal id): 258 | ≤ 0.25
isolate (source animal id): 261 | ≤ 0.25
isolate (source animal id): 262 | ≤ 0.25
isolate (source animal id): 269 | ≤ 0.25
isolate (source animal id): 270 | ≤ 0.25
isolate (source animal id): 274 | ≤ 0.25
isolate (source animal id): 275 | ≤ 0.25
isolate (source animal id): 276 | ≤ 0.25
isolate (source animal id): 277 | ≤ 0.25
isolate (source animal id): 278 | ≤ 0.25
isolate (source animal id): 279 | ≤ 0.25
isolate (source animal id): 280 | ≤ 0.25
isolate (source animal id): 284 | ≤ 0.25
isolate (source animal id): 285 | ≤ 0.25
isolate (source animal id): 287 | ≤ 0.25
isolate (source animal id): 290 | ≤ 0.25
isolate (source animal id): 294 | ≤ 0.25
isolate (source animal id): 295 | ≤ 0.25
isolate (source animal id): 296 | ≤ 0.25
isolate (source animal id): 307 | ≤ 0.25
isolate (source animal id): 310 | ≤ 0.25
isolate (source animal id): 311 | ≤ 0.25
isolate (source animal id): 312 | ≤ 0.25
isolate (source animal id): 313 | ≤ 0.25
isolate (source animal id): 315 | ≤ 0.25
isolate (source animal id): 316 | ≤ 0.25
